Reference: PMC6008586, “Analysis of transition state mimicry by tight binding aminothiazoline inhibitors provides insight into catalysis by human O-GlcNAcase” (Chemical Science, 2016)
Where two headings read alike, the source gives them in different places.

Experiments:
[1] = reference compound with known pKa; cited from earlier work
[2] = tested on: human lysosomal β-hexosaminidase (HEX); conditions: cited from earlier work
[3] = target: T1, human OGA (hOGA) (Homo sapiens, UniProt O60502); test: Inhibition of hOGA-catalysed 4-MUGlcNAc hydrolysis (Ki determination); assay type: biochemical
T1 construct: made in house
T1 sequence (O60502 1-916): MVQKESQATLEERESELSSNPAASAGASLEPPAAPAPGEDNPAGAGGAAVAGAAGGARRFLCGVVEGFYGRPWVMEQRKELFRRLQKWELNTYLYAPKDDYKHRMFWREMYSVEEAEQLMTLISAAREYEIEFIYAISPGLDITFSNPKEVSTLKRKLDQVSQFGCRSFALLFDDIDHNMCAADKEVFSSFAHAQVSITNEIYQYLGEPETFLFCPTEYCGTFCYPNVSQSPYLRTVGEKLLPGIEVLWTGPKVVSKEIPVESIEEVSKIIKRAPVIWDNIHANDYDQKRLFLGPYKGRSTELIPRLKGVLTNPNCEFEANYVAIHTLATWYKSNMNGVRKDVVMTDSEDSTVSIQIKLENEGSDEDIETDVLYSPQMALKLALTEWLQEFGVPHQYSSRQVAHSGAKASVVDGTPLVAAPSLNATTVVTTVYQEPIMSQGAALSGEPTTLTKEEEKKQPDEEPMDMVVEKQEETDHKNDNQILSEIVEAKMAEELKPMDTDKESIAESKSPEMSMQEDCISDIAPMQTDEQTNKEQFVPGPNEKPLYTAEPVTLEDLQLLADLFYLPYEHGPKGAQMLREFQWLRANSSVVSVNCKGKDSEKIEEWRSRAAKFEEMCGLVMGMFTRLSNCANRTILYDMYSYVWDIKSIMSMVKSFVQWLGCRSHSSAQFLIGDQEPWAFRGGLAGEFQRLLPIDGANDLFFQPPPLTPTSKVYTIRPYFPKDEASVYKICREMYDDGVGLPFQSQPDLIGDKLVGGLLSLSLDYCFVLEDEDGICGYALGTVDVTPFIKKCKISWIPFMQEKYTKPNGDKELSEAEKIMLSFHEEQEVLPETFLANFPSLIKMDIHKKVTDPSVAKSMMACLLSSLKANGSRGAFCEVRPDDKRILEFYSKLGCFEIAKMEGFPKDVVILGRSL
From the text: Refinement of the Morrison approach by Copeland enables defining the Ki value for an inhibitor through the use of relative rates using a quadratic equation (eqn (1)).[46] This approach depends on knowing the initial free enzyme and inhibitor concentrations without the assumption that the free inhibitor concentration is equal to the total inhibitor concentration.1 [drawing 1]
Further, Ki values can be accurately determined over a wide range of enzyme concentrations using this method,[47] which enabled us to use hOGA concentrations that permit accurate initial rate determinations. […]
(§1) Biological evaluation: Gene expression and protein purification. hOGA was expressed and purified according to the previously described procedure by Macauley et al.[5] hOGA was dialyzed twice against PBS buffer after purification and its concentration determined using the Nanodrop2000. Human β-hexosaminidase was obtained from Micheal Tropak at the Hospital for Sick Children in Toronto, without further purification.
(§2) Kinetic analysis of hOGA. […]
(§3) in PBS pH 7.4 buffer (0.03% BSA) in triplicate at 37°C for 20 minutes. A continuous assay procedure was performed in which the reactions were initiated by the addition of 4-MUGlcNAc substrate (50 µL or 100 µL via a multi-channel […]
(§4) The excitation and emission were 350
(§5) The amount of fluorogenic substrate liberated was quantitatively assessed by using a standard curve for 4-methylumbelliferone under identical buffer conditions. A total of 6-8 inhibitor concentrations were tested, […]
(§6) The hOGA concentrations in the assays ranged from 0.8 nM to 20 nM, depending on whether the Ki being determined was through classic Michaelis-Menten methods or the Morrison Ki fit. For full Ki […]
For the Morrison Ki analyses, only one substrate concentration was used (at the Km) since the method of inhibition was already known from analysis using the Line-weaver Burke plots.
Kinetic analysis of substrates 18a-e were performed in triplicate using pH 7.4 PBS buffer (0.03% BSA) containing 2.5% DMF, with varying enzyme concentrations. […]

[4] = target: T2, human hexosaminidase B (hHexB) (Homo sapiens, UniProt P07686); test: Inhibition of human hexosaminidase B (4-MUGlcNAc substrate); assay type: biochemical; conditions: for (hHexB/hOGA) selectivity ratio: Ki hHexB / Ki hOGA, favored selectivity for hOGA; for Ki: pH 4.25, 37°C
T2 construct: Micheal Tropak, Hospital for Sick Children, Toronto (gift, not a vendor)
T2 sequence (P07686 122-556): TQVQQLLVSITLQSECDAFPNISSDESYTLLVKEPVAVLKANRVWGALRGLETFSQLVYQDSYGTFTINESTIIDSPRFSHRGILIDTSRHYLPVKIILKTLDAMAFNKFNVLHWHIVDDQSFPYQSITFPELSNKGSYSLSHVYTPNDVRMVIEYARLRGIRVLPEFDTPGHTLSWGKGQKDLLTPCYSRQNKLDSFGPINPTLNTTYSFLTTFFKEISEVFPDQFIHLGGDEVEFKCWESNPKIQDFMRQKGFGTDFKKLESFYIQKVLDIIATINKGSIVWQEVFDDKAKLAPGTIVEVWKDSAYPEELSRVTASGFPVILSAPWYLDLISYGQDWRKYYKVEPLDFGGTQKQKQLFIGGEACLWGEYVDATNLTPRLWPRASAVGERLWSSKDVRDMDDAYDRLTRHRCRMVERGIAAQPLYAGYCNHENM
From the text: We next set out to assess the selectivity of this series of inhibitors for hOGA over the lysosomal β-hexosaminidases, which are comprised of combinations of α and β subunits that are products of the highly homologous HEXA and HEXB genes. […]
as §1, §2, §3, §4, §5, §6
For the Morrison Ki analyses, only one substrate concentration was used (at the Km) since the method of inhibition was already known from analysis using the Line-weaver Burke plots. […]
Kinetic analysis of β-hexosaminidase. All assays were carried out in 96 well plates (Thermoscientific, FloroNunc, lot […]
reactions were triggered by addition of substrate (20 µL or 15 µL) in a total volume of 45 or 40 µL. Reactions were […]
detect the fluorescent signal. […]

[5] = physchem; conditions: aqueous solution (H2O/D2O) with reference phenol
Protocol: (§7) In this way, a non-linear plot of the difference between NMR resonance frequencies for a compound of interest and those for a standard, such as 3-nitrophenol, can be used to determine the ratio (R) of the acid dissociation constants between these two materials.
(§8) pK determination using 13C NMR. All titrations were carried out on the Bruker AVANCE II 600 MHz NMR
(§9) spectrometer. The samples prepared for each titration contained 5 µL of 1,4-dioxane as an internal standard, an equal mol
(§10) amount of inhibitor and 3-nitrophenol or 3.4-dinitrophenol (depending on the availability of each compound) in 500 µL of
(§11) Each sample was made basic with 25-70 µL of 2M NaOH, and prior to
(§12) titration, it was ensured that there was no change in chemical shift with further addition of base in 5 µL increments, in
(§13) order to accurately establish the δd for each compound. The basic sample was then titrated with 10 µL of 0.5 M (15f-15h,
(§14) titration was reached. The point where the chemical shift stopped changing was the recorded δp for each compound. The
(§15) relative pKa (∆pKa) was then determined by non-linear fitting of data to Equation S1, which provides the value of R (R =
(§16) K x/K r) and describes the relationship between the difference (∆) in chemical shifts (δ) between each compound of
(§17) unknown pKa (x) and the reference compound with known pKa (r). δp and δd represent the chemical shifts of the protonated
(§18) and de-protonated species of each compound, where ∆ expresses the difference between the de-protonated species (δ x –
(§19) δd ), ∆ represents the difference between the deprotonated and protonated species of x (δd – δp ), and ∆ for that of the
(§20) reference compound (∆r = δ r – δ r). The fractional protonation of the reference compound is represented by n and is equal
We observed the 2′-carbon of the
(§21) aminothiazoline system and the C-1 carbon of 3-nitrophenol since these are most proximal to the ionizable center. Fitting
(§22) of the resulting data to Equation S1 (Figure 5 (ThiamEt-G), Supplemental Figure S7) enabled us to obtain values of R for
(§23) each compound and, by comparison to the reference compound, absolute pKa values (Table 1). The observed pKa values

[6] = pKa determination using 13C NMR titration
Protocol: as §7, §8, §9, §10, §11, §12, §13, §14, §15, §16, §17, §18, §19, §20
We observed the 2′-carbon of the
as §21, §22, §23

[7] = target: T3, hOGA (Homo sapiens, UniProt O60502); conditions: cited from earlier work
T3 construct: made in house
T3 sequence (O60502 1-916): T1 sequence (O60502 1-916)

[8] = Morrison Ki fit, 4-MUGlcNAc, PBS pH 7.4, 37°C, read-out: hOGA Ki
[9] = Dixon plot analysis (approximate Ki)
[10] = 3-nitrophenol as reference compound
[11] = Michaelis–Menten inhibition analysis, 4-MUGlcNAc, PBS pH 7.4, 37°C, read-out: hOGA Ki
[12] = 3,4-dinitrophenol as reference compound

O=[N+]([O-])c1cccc(O)c1 [3-nitrophenol]
pKa [1]: 8.42

CC(=O)N[C@H]1CN2CC[C@H](O)[C@@H]2[C@@H](O)[C@@H]1O [6-Ac-Cas, 6-acetamido-6-deoxy-castanospermine]
selectivity for hOGA over lysosomal β-hexosaminidases ([2]; in words): non-selective

NC1=N[C@@H]2[C@@H](O)[C@H](O)[C@@H](CO)O[C@@H]2S1 [11a]
Ki [3, 8]: 0.0047 ± 0.0003 µM | (hHexB/hOGA) selectivity ratio [4]: 1100 | Ki ([4]; Michaelis–Menten inhibition analysis (full Ki)): 5 ± 0.6 µM

C=CCNC1=N[C@@H]2[C@@H](O)[C@H](O)[C@@H](CO)O[C@@H]2S1 [11b]
mode of inhibition of hOGA ([3]; Lineweaver–Burk / Michaelis-Menten analysis): competitive inhibition | Ki ([3]; Michaelis-Menten analysis, hOGA 0.8 nM (Figure S2A), read-out: hOGA Ki): 0.0023 ± 0.0003 µM | Ki [3, 8]: 0.0032 ± 0.0004 µM | Ki ([3]; Morrison approach, hOGA 10 nM, substrate 60 µM (Figure S2B), read-out: hOGA Ki): 0.0032 ± 0.0004 µM | Ki ([3]; graphical determination, Km app against inhibitor concentration (Figure S2A inset), read-out: hOGA Ki): 0.0047 µM | Ki [4, 9]: 2850 ± 570 µM | (hHexB/hOGA) selectivity ratio [4]: 950 000

CN(C)C1=N[C@@H]2[C@@H](O)[C@H](O)[C@@H](CO)O[C@@H]2S1 [15b]
Ki [4, 9]: 13 ± 3.8 µM

CCNC1=N[C@@H]2[C@@H](O)[C@H](O)[C@@H](CO)O[C@@H]2S1 [15c, 1,2-dideoxy-2′-ethylamino-α-D-glucopyranoso-[2,1-d]-Δ2′-thiazoline]
Ki ([2]; read-out: hHexB Ki): 740 ± 60 µM | pKa [5]: 7.68 | R (Kax/Kar) [6, 10]: 0.1823 ± 0.0042 | Fraction protonated at pH 7.4 [6]: 0.66

CCCNC1=N[C@@H]2[C@@H](O)[C@H](O)[C@@H](CO)O[C@@H]2S1 [15d]
Ki [3, 8]: 0.002 ± 0.0002 µM | Ki [4, 9]: 3700 ± 670 µM | (hHexB/hOGA) selectivity ratio [4]: 1 850 000

CCCCNC1=N[C@@H]2[C@@H](O)[C@H](O)[C@@H](CO)O[C@@H]2S1 [15e]
Ki [3, 11]: 0.35 ± 0.09 µM | Ki [4, 9]: 4800 ± 763 µM | (hHexB/hOGA) selectivity ratio [4]: 13 700

OC[C@H]1O[C@@H]2SC(NCCF)=N[C@@H]2[C@@H](O)[C@@H]1O [15f]
Ki [3]: 0.015 ± 0.005 µM | Ki [4, 9]: 180 ± 44 µM | (hHexB/hOGA) selectivity ratio [4]: 12 000 | pKa [5]: 6.92 | R (Kax/Kar) [6, 10]: 0.0316 ± 0.0063 | Fraction protonated at pH 7.4 [6]: 0.25

OC[C@H]1O[C@@H]2SC(NCC(F)F)=N[C@@H]2[C@@H](O)[C@@H]1O [15g]
Ki [3, 11]: 0.06 ± 0.01 µM | Ki [4, 9]: 150 ± 50 µM | (hHexB/hOGA) selectivity ratio [4]: 2500 | pKa [5]: 6.18 | R (Kax/Kar) [6, 10]: 0.0058 ± 0.0002 | Fraction protonated at pH 7.4 [6]: 0.06

OC[C@H]1O[C@@H]2SC(NCC(F)(F)F)=N[C@@H]2[C@@H](O)[C@@H]1O [15h]
Ki [3, 11]: 1 ± 0.2 µM | Ki [4, 9]: 4200 ± 1530 µM | (hHexB/hOGA) selectivity ratio [4]: 4200 | pKa [5]: 5.33 | R (Kax/Kar) [6, 12]: 1.213 ± 0.049 | Fraction protonated at pH 7.4 [6]: 0.01

CC(C)C(=O)N[C@H]1c2nc(CCc3ccccc3)cn2[C@H](CO)[C@@H](O)[C@@H]1O [GlcNAcstatin C]
Ki [7]: 0.0032 µM | Ki(HEX)/Ki(hOGA) [2]: 190

C=CC=CC(=O)N[C@H]1c2nc(CCc3ccccc3)cn2[C@H](CO)[C@@H](O)[C@@H]1O [GlcNAcstatin G]
Ki [7]: 0.0041 µM | Ki(HEX)/Ki(hOGA) [2]: 900 000

CCCCC(=O)N[C@H]1c2nc(CCc3ccccc3)cn2[C@H](CO)[C@@H](O)[C@@H]1O [GlcNAcstatin H]
Ki(HEX)/Ki(hOGA) [2]: 35 000

CCCC1=N[C@@H]2[C@@H](O)[C@H](O)[C@@H](CO)O[C@@H]2S1 [NButGT, reference compound]
Ki(HEX)/Ki(hOGA) ([2]; selectivity for hOGA over lysosomal β-hexosaminidases): 1,500 | pKa [5]: 4.65 | R (Kax/Kar) [6, 12]: 5.47 ± 3.28
